Patent publication US20250154143A1, “PRODRUGS FOR USE IN THE TREATMENT OF TISSUE DAMAGE” (UCL BUSINESS LTD, priority 2021, published 2025)
Values after ≈ are worked out from the molar mass of the structure shown. Counter-ions that a name gives are not always drawn.

Key:
[1] = Thermodynamic solubility in PBS, FaSSIF and SGF; assay type: physicochemical; conditions: thermodynamic from solid, room temperature
Procedure: A known quantity of the Examples and control compounds were weighed into a suitable vessel (whatman miniuniprep vials) and a known volume of the required media was added (e.g. Simulated Gastric Fluid pH 1.2 [SGF], Simulated Fasted State Intestinal Fluid pH 6.5 [FaSSIF] or Phosphate Buffered Saline pH 7.4 [PBS]). The samples were subjected to vortex mixing for 2 minutes followed by agitation on a shaker for 24 hours at room temperature at 800 rpm. The samples were then centrifuged for 20 minutes at 4000 rpm, the miniuniprep vials compressed and the filtrates analysed by HPLC (Waters Xbridge C18 4.6×100 mm, mobile phase A: 0.1% TFA in water, mobile phase B: 0.1% TFA in acetonitrile).

human CRP = biological target: T1, human CRP (Homo sapiens, UniProt P02741); conditions: rat acute myocardial infarction model, rats receiving human CRP; cited from earlier work
T1 construct: The final concentrations were 0.73 μM native pentameric CRP; from tissue
T1 sequence (P02741 19-224): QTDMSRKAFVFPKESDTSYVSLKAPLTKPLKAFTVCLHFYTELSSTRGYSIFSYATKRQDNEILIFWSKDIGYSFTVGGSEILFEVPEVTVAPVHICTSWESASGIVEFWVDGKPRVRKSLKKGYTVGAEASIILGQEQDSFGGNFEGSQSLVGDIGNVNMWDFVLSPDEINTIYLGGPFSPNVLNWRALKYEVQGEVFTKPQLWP

[2] = Stability in FaSSIF, SGF and PBS; assay type: physicochemical; conditions: 37° C.
Procedure: 10 μL of a 10 mM stock solution of the Examples were dissolved in 490 μL DMSO to afford […] working solution
Dissolve 0.04 g NaCl and 0.064 g pepsin in 0.14 mL HCl and add sufficient water to 20 mL volume. The pH of the test solution was 1.20±0.05.
0.056% (w/v) lecithin, 0.161% (w/v) sodium taurocholate, 0.39% (w/v) monobasic potassium phosphate, 0.77% (w/v) potassium chloride, deionized H2O. The pH of the test solution was 6.5±0.05.
30 mL of 10×PBS (pH7.4) was added into a 50 mL flask and diluted with water. The solution was mixed well and adjusted to pH 7.4 with 1N HCl.
Protocol for Determining Stability 2 μL of the 200 μL working solution of the Examples was added into 96-deep-well plates for T0, T60, T120, T360 and T1440 timepoints. Duplicates were prepared.
Stability studies were commenced by the addition of 198 μL of the required media (e.g. Simulated Gastric Fluid pH 1.2 [SGF], Simulated Fasted State Intestinal Fluid pH 6.5 [FaSSIF]) and Phosphate Buffered Saline pH 7.4 [PBS]) to each well except T0. The samples were incubated at 37° C. at 600 rpm for the appointed time. The samples at the corresponding timepoint were removed and immediately mixed with 400 μL of 0.3% FA in MeCN containing 200 ng/mL tolbutamide and labetalol (internal standard). 200 μL of suspension was removed and mixed with 400 μL of 0.3% FA in cold MeCN containing 200 ng/mL tolbutamide and labetalol. The samples were centrifuged at 4000 rpm at 4° C. for 20 minutes. 60 μL of the supernatant was removed and mixed with 180 μL purified water and thoroughly mixed and analysed by LCMS (Shimadzu LC 30-AD, ACQUITY UPLC HSS T3 1.8 um 2.1*50 mm Part No. 186003538, with mobile phase A: 0.1% formic acid in water, mobile phase B: 0.1% formic acid in MeCN. Formation of parent was also monitored as a metabolite.
Samples were analysed by Mass Spectrometry QTRAP 6500+

[3] = Phosphate Buffered Saline (PBS), aqueous buffer, PBS pH 7.4, 24 hour timepoint
[4] = Simulated Fasted State Intestinal Fluid (FaSSIF), FaSSIF pH 6.5, 24 hour timepoint
[5] = Simulated Gastric Fluid (SGF), simulated gastric fluid, SGF pH 1.2, 24 hour timepoint

| SMILES | solubility thermodynamic at 24 h [1, 3] | solubility thermodynamic at 24 h [1, 4] | solubility thermodynamic at 24 h [1, 5] | Effect on adverse effects of human CRP (human CRP) | FaSSIF (pH 6.5) % remaining ([2]; FaSSIF pH 6.5, 6 hr) | FaSSIF (pH 6.5) % remaining ([2]; FaSSIF pH 6.5, 24 h) | PBS (pH 7.4) % remaining ([2]; PBS pH 7.4, 6 h) | PBS (pH 7.4) % remaining ([2]; PBS pH 7.4, 24 h) | SGF (pH 1.2) % remaining ([2]; SGF pH 1.2, 6 h) | SGF (pH 1.2) % remaining ([2]; SGF pH 1.2, 24 h) |
| --- | --- | --- | --- | --- | --- | --- | --- | --- | --- | --- |
| O=C(N[C@@H](C(=O)O)C1CN2CCC1CC2)c1ccc(C(=O)N[C@@H](C(=O)O)C2CN3CCC2CC3)cc1 (stereo partly drawn) [APL-2191.2HCl, (R,2R,2′R)-2,2′-(terephthaloylbis(azanediyl))bis(2-((R)-quinuclidin-3-yl)acetic acid) bis hydrochloride salt] | 1690 µg/mL | 2510 µg/mL | 4560 µg/mL |  |  |  |  |  |  |  |
| C[N+](C)(C)CCOP(=O)([O-])OCCCCCCOP(=O)([O-])OCC[N+](C)(C)C [BPC6, bis(phosphocholine)hexane] |  |  |  | completely abrogate the adverse effects of human CRP |  |  |  |  |  |  |
| C[N+](C)(C)CCOP(=O)(O)OCCCCCCCCOP(=O)(O)OCC[N+](C)(C)C [BPC8, bis(phosphocholine)octane] |  |  |  | completely abrogate the adverse effects of human CRP |  |  |  |  |  |  |
| COC(=O)[C@H](NC(=O)c1ccc(C(=O)N[C@@H](C(=O)OC)C2CN3CCC2CC3)cc1)C1CN2CCC1CC2 (stereo partly drawn) [Example 1, (R,2R,2′R)-2,2′-(terephthaloylbis(azanediyl))bis(2-((R)-quinuclidin-3-yl)acetic acid) bis methyl ester] | 1220 µg/mL (≈ 2.31 mM) | 4690 µg/mL (≈ 8.9 mM) | 5930 µg/mL (≈ 11.3 mM) |  | 98.3% | 113.3% | 84.07% | 55.89% | 101.2% | 92.6% |
| CCOC(=O)[C@H](NC(=O)c1ccc(C(=O)N[C@@H](C(=O)OCC)C2CN3CCC2CC3)cc1)C1CN2CCC1CC2 (stereo partly drawn) [Example 12, (R,2R,2′R)-2,2′-(terephthaloylbis(azanediyl))bis(2-((R)-quinuclidin-3-yl)acetic acid) bis ethyl ester] | 5520 µg/mL (≈ 9.94 mM) | 4540 µg/mL (≈ 8.18 mM) | 4000 µg/mL (≈ 7.22 mM) |  | 105.0% | 95.2% | 84.33% | 87.14% | 101.2% | 92.3% |
| CC(C)OC(=O)[C@H](NC(=O)c1ccc(C(=O)N[C@@H](C(=O)OC(C)C)C2CN3CCC2CC3)cc1)C1CN2CCC1CC2 (stereo partly drawn) [Example 13, (R,2R,2′R)-2,2′-(terephthaloylbis(azanediyl))bis(2-((R)-quinuclidin-3-yl)acetic acid) bis isopropyl ester] | 4560 µg/mL (≈ 7.83 mM) | 5200 µg/mL (≈ 8.93 mM) | 5140 µg/mL (≈ 8.82 mM) |  | 99.7% | 110.4% | 103.43% | 104.61% | 107.2% | 100.0% |
